Source: patent US10098350B2, “Fungicidal amides” (E. I. DU PONT DE NEMOURS AND COMPANY, priority 2013, dated 2018)

Assays:
Assay type in all cases: in vivo
[1] = test system: Puccinia recondite f. sp. tritici; test: Test D: wheat seedlings sprayed with test suspension, inoculated with Puccinia recondite f. sp. tritici (wheat leaf rust), visual disease rating
Procedure, shortened: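 Wheat seedlings were sprayed to run-off with compound suspended in 50/50 acetone–water containing 250 ppm Trem 014, at 10-200 ppm (40-800 g ai/ha). They were inoculated with rust spores the next day, then kept 24 h saturated at 20 °C and 6 days at 20 °C. Scores are visual % disease control versus untreated controls.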

[2] = test system: Stagonospora nodorum (also known as Septoria nodorum); test: Test B: wheat seedlings sprayed with test suspension, inoculated with Stagonospora nodorum (wheat glume blotch), visual disease rating
Procedure, shortened: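 Compounds in acetone/water 50/50 with 250 ppm Trem 014 were sprayed to run-off on wheat seedlings at 10, 40, 50 or 200 ppm (40–800 g ai/ha). Plants were inoculated next day, held 48 h saturated at 20 °C, then 6 days in a growth chamber at 20 °C. Visual rating 0–100% disease control relative to controls.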

Botrytis cinerea = test: Test A: tomato seedlings sprayed with test suspension, inoculated with Botrytis cinerea (gray mold), visual disease rating
Source text: General protocol for preparing test suspensions for Tests A-E: the test compounds were first dissolved in acetone in an amount equal to 3% of the final volume and then suspended at the desired concentration (in ppm) in acetone and purified water (50/50 mix by volume) containing 250 ppm of the surfactant Trem® 014 (polyhydric alcohol esters). The resulting test suspensions were then used in Tests A-E. Samples were applied to plants at either a 10 ppm (**), 40 ppm, 50 ppm (*) or 200 ppm (#) test solution to the point of run-off on the test plants with the equivalent of a rate of 40 g ai/ha, 160 g ai/ha, 200 g ai/ha, or 800 g ai/ha, respectively.
The test suspension was sprayed to the point of run-off on tomato seedlings. The following day the seedlings were inoculated with a spore suspension of Botrytis cinerea (the causal agent of gray mold on many crops) and incubated in a saturated atmosphere at 20° C. for 48 h, and moved to a growth chamber at 27° C. for 2 days, after which time visual disease ratings were made.
Results for Tests A-E are given in Table A. In the Table, a rating of 100 indicates 100% disease control and a rating of 0 indicates no disease control (relative to the controls). A dash (-) indicates no test results.

Septoria tritici = test: Test C: wheat seedlings sprayed with test suspension, inoculated with Septoria tritici (wheat leaf blotch), visual disease rating
Procedure, shortened: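 Wheat seedlings sprayed to run-off with compound suspended in acetone/water with 250 ppm Trem 014, at 10, 40, 50 or 200 ppm (40–800 g ai/ha). Inoculated with Septoria tritici spores the next day, held 48 h saturated at 24 °C, then 21 days at 20 °C. Visual rating 0–100% disease control relative to controls.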

[3] = test system: Erysiphe graminis f. sp. tritici; test: Test E: wheat seedlings sprayed with test suspension, inoculated with Erysiphe graminis f. sp. tritici (wheat powdery mildew), visual disease rating
Procedure, shortened: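 Wheat seedlings sprayed to run-off with compound suspension (acetone 3%, acetone/water 50/50 with 250 ppm Trem 014) at 10, 40, 50 or 200 ppm (40–800 g ai/ha), inoculated next day with spore dust. Incubated 7 or 8 days at 20° C, then rated visually as % disease control relative to controls (0–100).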

[4] = Cmpd. No. unmarked, 100 = 100% disease control, 0 = no control relative to controls
[5] = Cmpd. No. marked '#' (other test rate; meaning of mark not shown)

Molecule | Test D rating (% disease control) [1, 4] | Test B rating (% disease control) [2, 4] | Test A rating (% disease control) (Botrytis cinerea; [4]) | Test C rating (% disease control) (Septoria tritici; [4]) | Test E rating (% disease control) [3, 4] | Test D rating (% disease control) [1, 5] | Test B rating (% disease control) [2, 5] | Test A rating (% disease control) (Botrytis cinerea; [5]) | Test C rating (% disease control) (Septoria tritici; [5]) | Test E rating (% disease control) [3, 5]
Cn1cc(C(=O)N(Cc2ccc(-n3cc(Br)cn3)cc2Cl)C2CC2)c(C(F)F)n1 [Compound 10] | 86% | 99% | 0% | 38% | 0% |  |  |  |  | 
Cn1cc(C(=O)N(Cc2ccc(-n3cc(Cl)cn3)cc2Cl)C2CC2)c(C(F)F)n1 [compound 20] | 79% | 99% | 32% | 94% | 40% |  |  |  |  | 
Cn1cc(C(=O)N(Cc2cccc(-n3ccc(C(F)(F)F)n3)c2)C2CC2)c(C(F)F)n1 [Compound 9, N-cyclopropyl-3-(difluoromethyl)-1-methyl-N-[[3-[3-(trifluoromethyl)-1H-pyrazol-1-yl]phenyl]methyl]-1H-pyrazole-4-carboxamide] | 9% | 93% | 9% | 96% | 81% | 74% | 99% | 39% | 100% | 96%
N-cyclopropyl-3-(difluoromethyl)-1-methyl-N-[[3-[3-(trifluoromethyl)-1H-pyrazol-1-yl]phenyl]methyl]-1H-pyrazole-4-carboxamide [Compound 9] | 0% | 0% | 0% | 43% | 0% | 0% | 0% | 0% | 96% | 43%
CC(c1ccc(-n2ccc(C(F)(F)F)n2)cc1Cl)N(C(=O)c1cn(C)nc1C(F)F)C1CC1 (stereo not drawn) [compound 19] | 85% | 99% | 0% | 75% | 64% |  |  |  |  | 
COc1ccc(-n2ccc(C(F)(F)F)n2)cc1CN(C(=O)c1cn(C)nc1C(F)F)C1CC1 [compound 14] | 32% | 42% | 0% | 83% | 92% |  |  |  |  | 
Cn1cc(C(=O)N(Cc2ccc(-n3ccc(Cl)n3)cn2)C2CC2)c(C(F)F)n1 [compound 5] | 0% | 0% | 0% | 17% | 0% | 28% | 0% | 0% | 80% | 0%
Cn1cc(C(=O)N(Cc2ccc(-n3cc(Cl)cn3)cn2)C2CC2)c(C(F)F)n1 [compound 6] | 0% | 0% | 0% | 9% | 0% | 28% | 98% | 0% | 67% | 13%
Cn1cc(C(=O)N(Cc2cccc(-n3ccc(C(F)(F)F)n3)c2C(F)(F)F)C2CC2)c(C(F)F)n1 [compound 41] | 23% | 0% | 0% | 94% | 40% |  |  |  |  | 
Cc1nc(C(F)(F)F)c(C(=O)N(Cc2ccc(-n3ccc(C(F)(F)F)n3)cc2Cl)C2CC2)s1 [Compound 151] | 23% | 0% | 23% | 87% | 0% |  |  |  |  | 
Cc1ccc(CN(C(=O)c2cn(C)nc2C(F)F)C2CC2)cc1-n1ccc(C(F)(F)F)n1 [compound 27] | 31% | 92% | 0% | 38% | 21% |  |  |  |  | 
Cn1nc(C(F)F)c(C(=O)N(Cc2cccc(-n3ccc(C(F)(F)F)n3)c2)C2CC2)c1F [Compound 3, N-cyclopropyl-3-(difluoromethyl)-5-fluoro-1-methyl-N-[[3-[3-(trifluoromethyl)-1H-pyrazol-1-yl]phenyl]methyl]-1H-pyrazole-4-carboxamide] | 99% | 100% | 0% | 100% | 99% |  |  |  |  | 
Cn1cc(C(=O)N(Cc2ccc(-n3ccc(C(F)(F)F)n3)cc2Cl)C2CC2)c(C(F)(F)F)n1 [Compound 35] | 9% | 0% | 0% | 89% | 0% |  |  |  |  | 
Cn1cc(C(=O)N(Cc2cc(-n3ccc(C(F)(F)F)n3)ccc2Cl)C2CC2)c(C(F)F)n1 [compound 30] | 31% | 60% | 0% | 87% | 64% |  |  |  |  | 
Cn1nc(C(F)F)c(C(=O)N(Cc2ccc(-n3ccc(C(F)(F)F)n3)cc2Cl)C2CC2)c1F [Compound 12, N-[[2-chloro-4-[3-(trifluoromethyl)-1H-pyrazol-1-yl]phenyl]methyl]-N-cyclopropyl-3-(difluoromethyl)-5-fluoro-1-methyl-1H-pyrazole-4-carboxamide] | 99% | 100% | 0% | 100% | 97% |  |  |  |  | 
Cn1nc(C(F)F)c(C(=O)N(Cc2ccc(-n3cc(Br)cn3)cc2Cl)C2CC2)c1Cl [compound 31] | 98% | 0% | 0% | 42% | 0% |  |  |  |  | 
Cc1cc(-n2ccc(C(F)(F)F)n2)cc(CN(C(=O)c2cn(C)nc2C(F)F)C2CC2)c1F [compound 29] | 68% | 94% | 0% | 83% | 48% |  |  |  |  | 
